Assay results published in patent US8496913B2, “Compressed chewing gum tablet” (Gumlink A/S, priority 2005, dated 2013).

Test system: plaque
Conditions: in vivo

Compound: CC(=O)[O-].CC(=O)[O-].[Zn+2] [zinc acetate]
- effect on plaque in hard-to-reach places: with high efficiency
